Test results reported in patent US7034020B2, “Derivatives of butyric acid and uses thereof” (The University of Arkansas for Medical Science, priority 1999, dated 2006).

How the values were obtained:
[1] = tested on: KLH-specific Th1 cells (clone D3); test: Th1 cell anergy induction in vitro (primary culture with MEB, secondary culture restimulation); type: cell-based, C57BL/10 mice; conditions: for Proliferation in antigen-stimulated secondary cultures: secondary: KLH
Method: KLH-specific Th1 cells (clone D3) are incubated in primary cultures with (FIG. 5A) MEB (1 mM) and/or IL-2 (10% Con A CM), or (FIG. 5B) MEB (1 mM) and/or KLH (50 μg/ml). After 2 days, the Th1 cells are isolated from the primary cultures, rested, and then re-incubated in secondary cultures stimulated with antigen (KLH, 50 μg/ml) or IL-2 (10% Con A CM).
Th1 cells are treated with MEB in the presence or absence of antigen or exogenous IL-2.
The ability of the butyrate derivative to induce Th1 cell anergy is examined using a protocol previously developed for n-butyrate-induced T cell tolerance (Gilbert and Weigle, 1993). Briefly, Th1 cells are incubated in primary cultures at 2.5×10^5 cells/ml, along with MEB (1 mM), KLH (50 μg/ml), and 5×10^6/ml irradiated syngeneic spleen cells as APC. Alternatively, the Th1 cells are incubated in primary cultures containing MEB and IL-2 (10% Con A CM). Control primary cultures receive MEB and APC, but no antigen or IL-2. After incubation for 24 h at 37° C., the cells in the primary cultures are harvested, washed free of MEB, and reincubated at 2.5×10^5 ml in secondary cultures without MEB. The Th1 cells in the secondary cultures are stimulated with 10% IL-2-cQntaining Con A CM, or with 5×10^6/ml irradiated syngeneic spleen cells as APC, and KLH. After 2 days in the secondary cultures, the Th1 cells are assessed for proliferation (pulsed with [^3H]-TdR for 12 h).

[2] = tested on: spleen cells from DBA/2 mice; test: Mixed lymphocyte response (MLR), alloantigen-specific T cell unresponsiveness; type: cell-based
Method: (FIG. 6A) Spleen cells from DBA/2 mice (H-2^d) were stimulated in a primary mixed lymphocyte response (MLR) with irradiated spleen cells or from C57BL/10 mice (H-2^b) in the presence (∘) or absence (●) of MEB (1 mM). As a negative control some wells are stimulated with spleen cells from DBA/2 mice (▾). Proliferation is measured on day 5. (FIG. 6B) After 3 days, some wells in the primary MLR cultures are washed, and rested for a further 2 days. The spleen cells that were stimulated in the primary MLR with spleen cells from C57BL/10 mice in the presence (∘) or absence (●) of MEB are then isolated and reincubated with either the original alloantigen (spleen cells from C57BL/10 mice), with a third-party alloantigen [spleen cells from C3H/HeJ mice (H-2k)], or with IL-2 (Con A CM).
The ability of MEB to induce alloantigen-specific T cell unresponsiveness is shown by incubating spleen cells from DBA/2 mice (H-2^d) (2.5×10^5 in 200 μl /wells) with stimulator cells [2.5×10^5 irradiated (2000R) spleen cells from C57BL/10 mice (H-2^b)]. MEB (1 mM) is added to some wells of the mixed lymphocyte reaction (MLR) 24 hours after the initiation of culture. After an additional 3 days, the MLR cultures are washed, and rested for a further 2 days. The T cells from the MLR are then isolated and reincubated at 2.5×10^5/well with either the initial alloantigen (spleen cells from C57BL/10 mice), or with a third-party alloantigen [spleen cells from C3H/HeJ mice (H-2^k)]. Proliferation in both the primary and secondary MLR is measured on day 5 by assessing incorporation of [^3H]-TdR after a 12 hour pulse.

[3] = tested on: KLH-specific Th1 cells (clone C3); test: Cell cycle analysis (DNA content) of IL-2-stimulated Th1 cells; type: cell-based, C57BL/10 mice
Method: KLH-specific, Th1 cells (clone C3) are left unstimulated (resting), or are stimulated with IL-2 (10% Con A CM) in the presence or absence of MEB (1 mM). The Th1 cells are collected after 48 hours, and assayed for DNA content.
KLH-specific Th1 cells (clone C3) were stimulated with IL-2 (10% Con A CM) at the initiation of culture, and then again at 24, 48, and 96 hours (FIG. 8A). Some cultures also received a single dose of MEB (1 mM) at times 0, 15, 24 or 39 hours after the initiation of culture (FIGS. 8B, 8C, 8D, and 8E, respectively). The Th1 cells were collected at 0, 48, 72, 96 or 120 hours after the initiation of culture and assayed for DNA content.
If the ability of butyrate and its derivatives to induce Th1 cell tolerance is linked to their ability to block antigen-activated Th1 cells in G1, their therapeutic importance is enhanced if MEB induces G1 cell cycle blockade regardless of when in the cell cycle the compound is added. MEB is added to cultures of IL-2-stimulated Th1 at various time points. In the absence of MEB, it is shown that approximately 50% of IL-2-activated Th1 cells have exited G1 by Day 2 (FIG. 8). I n contrast, if MEB is added at the initiation of culture, over 97% of the IL-2-stimulated Th1 cells remain in G0/G1 for the duration of the experiment (120 hours). […] If MEB is added 24 hours instead of 15 hours after IL-2 stimulation, 89% of the Th1 cells are blocked in G1 phase by 48 h, and the cell cycle profile looks very similar to that obtained if MEB is added at the initiation of culture. Finally, even if MEB is added as late as 39 hours after IL-2 stimulation, 87% of the Th1 cells (as compared to 49.9% of controls) are sequestered in G0/G1 when DNA content is measured at 72 hours.
To examine DNA content, Th1 cells were fixed in prechilled 70% ethanol overnight at 4° C. The fixed Th1 cells were next washed in PBS, resuspended in 1 ml of staining buffer containing RNase (1 mg/ml; Sigma) and propidium iodide (50 μg/ml; Sigma), incubated for 20 minutes in the dark at 20° C., and analyzed by flow cytometry using a FACSCalibur (Becton Dickinson, Moutain View, Calif.). The data were analyzed using the ModFit DNA analysis program (Verity Software House).

CCCC(=O)OCCN1CCOCC1.Cl [MEB, 2-(4-Morpholinyl)ethyl butyrate hydrochloride]
Proliferation in antigen-stimulated secondary cultures ([1]; primary culture: IL-2 and MEB (1 mM)): retain their ability to proliferate to antigen | Proliferation in antigen-stimulated secondary cultures ([1]; primary culture: MEB alone (1 mM)): retain their ability to proliferate in response to antigen stimulation | Proliferation in secondary cultures stimulated with exogenous IL-2 ([1]; primary culture: antigen (KLH) and MEB (1 mM), secondary: IL-2): can still proliferate | Proliferation in antigen-stimulated secondary cultures ([1]; primary culture: antigen (KLH) and MEB (1 mM)): lose their ability to proliferate | Proliferation in secondary MLR, third-party alloantigen ([2]; MEB 1 mM in primary MLR, restimulated with C3H/HeJ spleen cells): able to proliferate | Proliferation in secondary MLR, initial alloantigen ([2]; MEB 1 mM in primary MLR, restimulated with C57BL/10 spleen cells without MEB): lose their ability to proliferate | Proliferation in secondary culture, exogenous IL-2 ([2]; MEB 1 mM in primary MLR, restimulated with IL-2): able to proliferate | Spleen cell proliferation in primary one-way MLR ([2]; MEB 1 mM, day 5): blocked spleen cell proliferation | Th1 cells remaining in G0/G1 ([3]; IL-2 (10% Con A CM) plus MEB 1 mM, 48 hours): essentially all | IL-2-stimulated Th1 cells in G0/G1 ([3]; MEB 1 mM added 15 hours after IL-2, by 96 hours (control 56.9%)): 79.3% | IL-2-stimulated Th1 cells in G1 ([3]; MEB 1 mM added 24 hours after IL-2, by 48 h): 89% | IL-2-stimulated Th1 cells in G0/G1 ([3]; MEB 1 mM added 39 hours after IL-2, at 72 hours (control 49.9%)): 87% | IL-2-stimulated Th1 cells in G0/G1 ([3]; MEB 1 mM added at initiation of culture, for duration of experiment (120 hours)): over 97%
